What was measured:
Gefitinib = compound: COc1cc2ncnc(Nc3ccc(F)c(Cl)c3)c2cc1OCCCN1CCOCC1 [Gefitinib]; conditions: max 10 µM
Outline: (§1)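 Following 24 hours at 37°C and 5% CO2, cancer cell lines in 1536-well plates with 7.5 μl DMEM/F12 or RPMI and 10% FBS were dosed for 72 hours, final DMSO typically being 0.2%. CellTiter-Glo 2.0 luminescence, scaled between blank-well and DMSO-well means, gave the viability readout. Dose responses were fitted to a two-parameter logistic curve with a non-linear mixed effects model, and the single-agent IC50 was derived from this fit.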

Dasatinib = compound: CC1=C(C(=CC=C1)Cl)NC(=O)C2=CN=C(S2)NC3=CC(=NC(=N3)C)N4CCN(CC4)CCO [Dasatinib]; conditions: max 2 µM
Outline: as §1

AZD6738 = compound: C[C@@H]1COCCN1C2=NC(=NC(=C2)C3(CC3)[S@](=N)(=O)C)C4=C5C=CNC5=NC=C4 [AZD6738]; conditions: max 10 µM
Outline: as §1

Crizotinib = compound: C[C@@H](Oc1cc(-c2cnn(C3CCNCC3)c2)cnc1N)c1c(Cl)ccc(F)c1Cl [Crizotinib]; conditions: max 10 µM
Outline: as §1

AZD2811 = compound: CCN(CCO)CCCOc1ccc2c(Nc3cc(CC(=O)Nc4cccc(F)c4)[nH]n3)ncnc2c1 [AZD2811]; conditions: max 1 µM
Outline: as §1

AZD8186 = compound: C[C@@H](Nc1cc(F)cc(F)c1)c1cc(C(=O)N(C)C)cc2c(=O)cc(N3CCOCC3)oc12 [AZD8186]; conditions: max 3 µM
Outline: as §1

Olaparib = compound: O=C(c1cc(Cc2n[nH]c(=O)c3ccccc23)ccc1F)N1CCN(C(=O)C2CC2)CC1 [Olaparib]; conditions: max 10 µM
Outline: as §1

Prexasertib = compound: COc1cccc(OCCCN)c1-c1cc(Nc2cnc(C#N)cn2)n[nH]1 [Prexasertib]; conditions: max 1 µM
Outline: as §1

AZD0156 = compound: CN(C)CCCOc1ccc(-c2ccc3ncc4c(c3c2)n(C2CCOCC2)c(=O)n4C)cn1 [AZD0156]; conditions: max 3 µM
Outline: as §1

Doxorubicin = compound: COc1cccc2c1C(=O)c1c(O)c3c(c(O)c1C2=O)C[C@@](O)(C(=O)CO)C[C@@H]3O[C@H]1C[C@H](N)[C@H](O)[C@H](C)O1 [Doxorubicin]; conditions: max 1 µM
Outline: as §1

AZD7648 = compound: Cc1cc2ncnn2cc1Nc1ncc2c(n1)n(C1CCOCC1)c(=O)n2C [AZD7648]; conditions: max 10 µM
Outline: as §1

AZD1775 = compound: C=CCn1c(=O)c2cnc(Nc3ccc(N4CCN(C)CC4)cc3)nc2n1-c1cccc(C(C)(C)O)n1 [AZD1775]; conditions: max 3 µM
Outline: as §1

Taselisib = compound: Cc1nc(-c2cn3c(n2)-c2ccc(-c4cnn(C(C)(C)C(N)=O)c4)cc2OCC3)n(C(C)C)n1 [Taselisib]; conditions: max 10 µM
Outline: as §1

Lapatinib = compound: CS(=O)(=O)CCNCc1ccc(-c2ccc3ncnc(Nc4ccc(OCc5cccc(F)c5)c(Cl)c4)c3c2)o1 [Lapatinib]; conditions: max 10 µM
Outline: as §1

SG3199 = compound: CC1=CN2[C@@H](C1)C=NC3=CC(=C(C=C3C2=O)OC)OCCCCCOC4=C(C=C5C(=C4)N=C[C@@H]6CC(=CN6C5=O)C)OC [SG3199]; conditions: max 0.001 µM
Outline: as §1

SN-38 = compound: CCc1c2c(nc3ccc(O)cc13)-c1cc3c(c(=O)n1C2)COC(=O)[C@]3(O)CC [SN-38]; conditions: max 0.3 µM
Outline: as §1

AZD4320 = compound: CN(CC[C@H](CSC1=CC=CC=C1)NC2=C(C=C(C=C2)S(=O)(=O)NC(=O)C3=CC=C(C=C3)N4CCC(CC4)[C@H](C5=CC=CC=C5C6=CC=C(C=C6)Cl)O)S(=O)(=O)C(F)(F)F)CCO [AZD4320]; conditions: max 1 µM
Outline: as §1

Venetoclax = compound: CC1(C)CCC(CN2CCN(c3ccc(C(=O)NS(=O)(=O)c4ccc(NCC5CCOCC5)c([N+](=O)[O-])c4)c(Oc4cnc5[nH]ccc5c4)c3)CC2)=C(c2ccc(Cl)cc2)C1 [Venetoclax]; conditions: max 1 µM
Outline: as §1

AZD5153 = compound: COc1nnc2ccc(N3CCC(c4ccc(OCCN5CCN(C)C(=O)[C@H]5C)cc4)CC3)nn12 [AZD5153]; conditions: max 1 µM
Outline: as §1

Palbociclib = compound: CC(=O)c1c(C)c2cnc(Nc3ccc(N4CCNCC4)cn3)nc2n(C2CCCC2)c1=O [Palbociclib]; conditions: max 10 µM
Outline: as §1

AZD5991 = compound: Cc1c2c(nn1C)CSCc1cc(n(C)n1)CSc1cc(c3ccccc3c1)OCCCc1c(C(=O)O)n(C)c3c-2c(Cl)ccc13 [AZD5991]; conditions: max 1 µM
Outline: as §1

Trametinib = compound: CC(=O)Nc1cccc(-n2c(=O)n(C3CC3)c(=O)c3c(Nc4ccc(I)cc4F)n(C)c(=O)c(C)c32)c1 [Trametinib]; conditions: max 1 µM
Outline: as §1

Alisertib = compound: COc1cc(Nc2ncc3c(n2)-c2ccc(Cl)cc2C(c2c(F)cccc2OC)=NC3)ccc1C(=O)O [Alisertib]; conditions: max 10 µM
Outline: as §1

Selumetinib = compound: Cn1cnc2c(F)c(Nc3ccc(Br)cc3Cl)c(C(=O)NOCCO)cc21 [Selumetinib]; conditions: max 10 µM
Outline: as §1

Savolitinib = compound: C[C@@H](c1ccc2nccn2c1)n1nnc2ncc(-c3cnn(C)c3)nc21 [Savolitinib]; conditions: max 1 µM
Outline: as §1

Capivasertib = compound: C1CN(CCC1(C(=O)N[C@@H](CCO)C2=CC=C(C=C2)Cl)N)C3=NC=NC4=C3C=CN4 [Capivasertib]; conditions: max 10 µM
Outline: as §1

AZD1390 = compound: CC(C)n1c(=O)n(C)c2cnc3cc(F)c(-c4ccc(OCCCN5CCCCC5)nc4)cc3c21 [AZD1390]; conditions: max 0.3 µM
Outline: as §1

| Cell Line | IC50, cell viability 72 h (Gefitinib) [nM] | IC50, cell viability 72 h (Dasatinib) [nM] | IC50, cell viability 72 h (AZD6738) [nM] | IC50, cell viability 72 h (Crizotinib) [nM] | IC50, cell viability 72 h (AZD2811) [nM] | IC50, cell viability 72 h (AZD8186) [nM] | IC50, cell viability 72 h (Olaparib) [nM] | IC50, cell viability 72 h (Prexasertib) [nM] | IC50, cell viability 72 h (AZD0156) [nM] | IC50, cell viability 72 h (Doxorubicin) [nM] | IC50, cell viability 72 h (AZD7648) [nM] | IC50, cell viability 72 h (AZD1775) [nM] | IC50, cell viability 72 h (Taselisib) [nM] | IC50, cell viability 72 h (Lapatinib) [nM] | IC50, cell viability 72 h (SG3199) [nM] | IC50, cell viability 72 h (SN-38) [nM] | IC50, cell viability 72 h (AZD4320) [nM] | IC50, cell viability 72 h (Venetoclax) [nM] | IC50, cell viability 72 h (AZD5153) [nM] | IC50, cell viability 72 h (Palbociclib) [nM] | IC50, cell viability 72 h (AZD5991) [nM] | IC50, cell viability 72 h (Trametinib) [nM] | IC50, cell viability 72 h (Alisertib) [nM] | IC50, cell viability 72 h (Selumetinib) [nM] | IC50, cell viability 72 h (Savolitinib) [nM] | IC50, cell viability 72 h (Capivasertib) [nM] | IC50, cell viability 72 h (AZD1390) [nM] |
| --- | --- | --- | --- | --- | --- | --- | --- | --- | --- | --- | --- | --- | --- | --- | --- | --- | --- | --- | --- | --- | --- | --- | --- | --- | --- | --- | --- |
| MS751 (Cervical Carcinoma) | > 10000 | > 2000 | > 10000 | > 10000 | > 1000 | > 3000 | > 10000 | > 1000 | > 3000 | > 1000 | > 10000 | 1620 | > 10000 | > 10000 | > 1 | 36.8 | > 1000 | > 1000 | 200 | > 10000 | 222 | > 1000 | 1130 | > 10000 | > 1000 | > 10000 | > 300 |
| TOV-112D (Ovarian Carcinoma) | > 10000 | > 2000 | 6940 | > 10000 | > 1000 | > 3000 | > 10000 | 353 | > 3000 | 262 | > 10000 | 1260 | > 10000 | > 10000 | > 1 | 8.03 | > 1000 | > 1000 | 298 | > 10000 | > 1000 | > 1000 | 4320 | > 10000 | > 1000 | > 10000 | > 300 |
| MOLT-16 (T-Lymphoblastic Leukemia) | > 10000 | > 2000 | 557 | 1770 | 12.4 | > 3000 | 5600 | 11.2 | > 3000 | 46.7 | > 10000 | 168 | 1110 | 6350 | > 1 | 2.33 | 16.3 | 308 | 76.2 | 420 | 51.5 | > 1000 | 29.1 | > 10000 | > 1000 | 811 | > 300 |
| LN-18 (Glioblastoma) | > 10000 | > 2000 | 8830 | > 10000 | > 1000 | 2530 | > 10000 | 209 | > 3000 | > 1000 | > 10000 | > 3000 | 5680 | 9520 | > 1 | 138 | > 1000 | > 1000 | 342 | > 10000 | > 1000 | > 1000 | 1400 | > 10000 | > 1000 | > 10000 | > 300 |
| PANC-08-13 (Pancreatic Carcinoma) | > 10000 | > 2000 | > 10000 | > 10000 | > 1000 | > 3000 | > 10000 | 460 | > 3000 | > 1000 | > 10000 | > 3000 | 6440 | > 10000 | > 1 | > 300 | > 1000 | > 1000 | 350 | > 10000 | > 1000 | > 1000 | > 10000 | > 10000 | > 1000 | > 10000 | > 300 |
| COLO-678 (Colorectal Carcinoma) | > 10000 | > 2000 | > 10000 | > 10000 | > 1000 | > 3000 | > 10000 | > 1000 | > 3000 | > 1000 | > 10000 | > 3000 | > 10000 | > 10000 | > 1 | > 300 | > 1000 | > 1000 | > 1000 | > 10000 | > 1000 | 264 | > 10000 | 3440 | > 1000 | > 10000 | > 300 |
| DiFi (Colorectal Carcinoma) | 52.4 | > 2000 | 3530 | > 10000 | 595 | > 3000 | > 10000 | 16.7 | > 3000 | 961 | > 10000 | 1420 | 606 | 315 | > 1 | 33.3 | > 1000 | > 1000 | 403 | > 10000 | > 1000 | 42.8 | 5960 | 7260 | > 1000 | > 10000 | > 300 |
| SU-DHL-8 (B-Cell Non-Hodgkin's Lymphoma) | > 10000 | > 2000 | 2060 | > 10000 | > 1000 | > 3000 | > 10000 | 7.48 | > 3000 | 107 | > 10000 | 155 | > 10000 | > 10000 | > 1 | 3.04 | 38.7 | > 1000 | 684 | > 10000 | 144 | > 1000 | 6600 | > 10000 | > 1000 | > 10000 | > 300 |
